The record followed here is ChEMBL document CHEMBL1133920, “Novel 4-piperidinopyridine inhibitors of oxidosqualene cyclase-lanosterol synthase derived by consideration of inhibitor pK(a)” (Bioorg Med Chem Lett, 2001).

The nature of data set [1]: pKa was determined. The class given is physicochemical.
Data set [2] has as its target T1, Lanosterol synthase (Rattus norvegicus) (UniProt P48450).
T1 sequence (whole entry): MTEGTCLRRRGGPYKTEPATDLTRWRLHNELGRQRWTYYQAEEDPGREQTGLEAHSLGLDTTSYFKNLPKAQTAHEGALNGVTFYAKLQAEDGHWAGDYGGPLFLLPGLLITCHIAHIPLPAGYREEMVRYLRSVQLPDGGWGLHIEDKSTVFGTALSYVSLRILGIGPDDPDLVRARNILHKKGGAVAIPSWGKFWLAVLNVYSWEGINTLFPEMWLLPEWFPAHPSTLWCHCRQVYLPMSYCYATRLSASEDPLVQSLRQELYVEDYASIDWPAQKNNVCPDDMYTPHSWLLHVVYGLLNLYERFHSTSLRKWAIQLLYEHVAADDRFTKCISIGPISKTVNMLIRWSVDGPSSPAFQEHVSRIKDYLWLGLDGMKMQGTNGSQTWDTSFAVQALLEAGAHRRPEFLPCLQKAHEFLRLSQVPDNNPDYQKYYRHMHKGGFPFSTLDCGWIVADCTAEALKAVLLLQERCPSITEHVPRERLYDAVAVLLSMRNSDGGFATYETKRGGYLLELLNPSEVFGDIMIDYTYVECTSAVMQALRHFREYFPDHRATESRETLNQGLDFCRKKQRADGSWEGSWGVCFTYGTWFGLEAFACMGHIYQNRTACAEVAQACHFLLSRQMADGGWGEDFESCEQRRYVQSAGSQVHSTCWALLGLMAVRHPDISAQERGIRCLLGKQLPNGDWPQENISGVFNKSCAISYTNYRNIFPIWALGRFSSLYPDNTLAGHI
As to the kind of experiment: Percent inhibition of rat microsomal oxidosqualene cyclase-lanosterol synthase (OSC) at 100 nM.

The species entered for data set [3] is Rattus norvegicus. Nature of the data set: Effective dose for the 50% inhibition of rat cholesterol biosynthesis. The class given is functional.
The species named for data set [4] is Rattus norvegicus. Nature of the data set: Effective dose for the 80% inhibition of rat cholesterol biosynthesis. The class given is functional.
Data set [5] has as its system Rattus norvegicus. As to the kind of experiment: Percent feeding effect was determined after oral administration of 100 mg/kg in rat. The class given is functional.
Data set [6] in a line: Concentration for the inhibition of rat microsomal oxidosqualene cyclase-lanosterol synthase (OSC).
In data set [7] the test system is Rattus norvegicus. As to the kind of experiment: Percent reduction in food intake was determined after oral administration of 100 mg/kg in rat after 24 hours.
Data set [8] concerns Rattus norvegicus. Nature of the data set: Percent reduction in food intake was determined after oral administration of 50 mg/kg in rat after 24 hours. The class given is functional.

As a reminder, the pKa is the pH at which an ionisable group is half protonated. A higher pKa goes with a group that holds its proton tightly. As usually defined, the inhibition is the relative decrease from the control value, in per cent. Low values mean a response near the control, high ones a response far below the control. Usually ED50 stands for the dose at which the effect has come halfway, by size or by number of responders. Molecule `O=C(N1CCC(c2ccncc2)CC1)N1CCN(S(=O)(=O)c2ccc(Cl)cc2)CC1` returned a pKa in data set [1] of 5.8. In addition, the inhibition in data set [2] turned out to be 91%. Moreover, in data set [3], the 50% effective dose (ED50) stood at 1.7 mg/kg. In data set [4], the ED80 stood at 3.6 mg/kg.
For the molecule `O=C(N1CCN(c2ccncc2Cl)CC1)N1CCN(S(=O)(=O)c2ccc(Cl)cc2)CC1`, the pKa in data set [1] came to 5.8. For the same molecule, in data set [2], the inhibition stood at 87%. This molecule came in with an ED50 in data set [3] of 0.6 mg/kg. Moreover, the Effect in data set [5] is given as 14%. This molecule also had an ED80 in data set [4] of 1.4 mg/kg.
Molecule `O=C(N1CCN(c2ccncc2Cl)CC1)N1CCN(S(=O)(=O)c2ccc(Br)cc2)CC1` came in with an inhibition in data set [2] of 100%. In data set [3], this molecule registered an ED50 of 1.1 mg/kg. The molecule further showed an ED80 in data set [4] of 2.3 mg/kg.
As for `O=C(N1CCC(c2ccncc2)CC1)N1CCN(S(=O)(=O)c2ccc(F)cc2)CC1`, in data set [2], the inhibition was 97%. The ED50 in data set [3] is 0.5 mg/kg.
For orientation: IC50 means the point on the concentration scale where inhibition reaches its midpoint. Read a high IC50 as lower potency. `O=C(c1ccc(Cl)cc1)c1ccc(OC2CN3CCC2CC3)cc1` (stereo not given): inhibition in data set [6] was half-maximal at 58 nM (IC50).
The molecule `O=C(C1CCN(c2ccncc2F)CC1)N1CCN(S(=O)(=O)c2ccc(C(F)(F)F)cc2)CC1` yielded a pKa in data set [1] of 6.7. Moreover, the inhibition in data set [2] amounted to 100%. The molecule also showed an ED50 in data set [3] of 0.4 mg/kg. Further, the ED80 in data set [4] was 1 mg/kg.
Consider `O=C(C1CCN(c2ccncc2Br)CC1)N1CCN(S(=O)(=O)c2ccc(Br)cc2)CC1`, for which the inhibition in data set [2] was 89%. In data set [3], this molecule came in with an ED50 of 0.5 mg/kg.
On to `O=C(C1CCN(S(=O)(=O)c2ccc(Br)cc2)CC1)N1CCC(c2ccncc2)CC1`, for which the inhibition in data set [2] worked out at 100%. It took a dose of 0.5 mg/kg to reach the 50% effect level in data set [3] (ED50). Moreover, the ED80 in data set [4] was found to be 4.7 mg/kg.
`O=C(N1CCC(c2ccncc2)CC1)N1CCN(S(=O)(=O)c2ccc(Br)cc2)CC1` displayed an inhibition in data set [2] of 94%. It took a dose of 0.4 mg/kg to reach the 50% effect level in data set [3] (ED50). Also, in data set [5], the Effect came out at 23%. Also, in data set [4], the ED80 came out at 1.8 mg/kg.
On to `O=C(C1CCN(c2ccncn2)CC1)N1CCN(S(=O)(=O)c2ccc(Br)cc2)CC1`, for which the Reduction in data set [7] was 17%. Further, in data set [3], the 50% effect level (ED50) was put at a dose of 0.4 mg/kg.
For the molecule `O=C(C1CCN(c2ncncc2Br)CC1)N1CCN(S(=O)(=O)c2ccc(Br)cc2)CC1`, the inhibition in data set [2] was 47%. The same molecule registered an ED50 in data set [3] greater than 2 mg/kg.
In data set [2], `O=C(N1CCN(c2ccncc2Cl)CC1)N1CCN(S(=O)(=O)c2ccc(F)cc2)CC1` showed an inhibition of 100%. Further, the ED50 in data set [3] is 1.1 mg/kg. Moreover, in data set [4], the ED80 came out at 2.3 mg/kg.
In turn, `O=C(C1CCN(c2ccncc2)CC1)N1CCN(S(=O)(=O)c2ccc(Br)cc2)CC1` came in with a Reduction in data set [8] of 64%.
As to `O=C(N1CCN(c2ccncc2Cl)CC1)N1CCN(S(=O)(=O)c2ccc(C(F)(F)F)cc2)CC1`, in data set [2], the inhibition worked out at 100%. In data set [3], this molecule gave an ED50 of 0.2 mg/kg. This molecule also returned an ED80 in data set [4] of 0.7 mg/kg.
Consider `O=C(c1ccc(C(F)(F)F)cc1)N1CCC(=Cc2ccc(C3=NCCO3)cc2)CC1`, for which the Reduction in data set [7] is given as 15%.
